Assay results taken from patent US6048540A, “Acetamenophen composition with reduced liver toxicity” (Chong Kun Dang Corp., priority 1997, dated 2000).

Assays:
[1] = Stability test: content on storage and shelf life; settings: calculated with Arrehnius equation; component of prescription (b) of Example 2
[2] = low dose; cited from earlier work

| SMILES | Shelf life (time that content maintains more than 90% of initial at 25° C.) [1] [months] | eliminated as unmetabolized form [2] |
| --- | --- | --- |
| N[C@@H](CC(=O)[O-])C(=O)[O-].O.[Na+].[Na+] [Sodium L-aspartate monohydrate] | 33.86 | – |
| CSCCC(N)C(=O)O (racemic) [DL-Methionine] | 35.64 | – |
| Cn1c(=O)c2c(ncn2C)n(C)c1=O [Caffeine anhydrous] | 89.84 | – |
| CC(=O)Nc1ccc(O)cc1 [Acetaminophen] | 35.94 | about 2% |
